Each block holds one molecule with its values, some of them ahead of it.
Key:
ESE-1 [1] = experiment: ESE-1 mRNA Northern blot in LB-12 osteoblasts; type: cell-based, human; details: LB-12 cells
Method: (§1) U-87 Mg and U-138 Mg (human glioma), THP-1 (human monocytic), RAW 264.7 (murine monocytic), LB-12 (human osteoblast-like large T antigen transformed bone marrow stromal cells), and human chondrocytes were grown and treated with cytokines as described (Apperley, J., et al. 1990. J Bone Mineral Res. 5:S93; Goldring, M. B., et al. 1994. J Clin Invest 94:2307-16; Goldring, S. R., et al. 1983. J Bone Joint Surg 65:575-84; Libermann, T. A., et al. 1987. Embo J. 6:1627-1632).
Total RNA was harvested using QIAshreder (Qiagen) and RNeasy® Mini Kit (Quiagen) or Trizol (Gibco BRL). Poly A^+ RNA was prepared with MicroPoly(A) Pure (Ambion). Northern blots (5 μg total RNA) were hybridized using a full length ESE-1 cDNA probe as described (Oettgen, P., et al. et al. 1997, Mol Cell Biol 17:4419-33.).
Osteoblasts, the bone cells responsible for bone formation, represent another connective tissue cell target of inflammatory cytokines in joint disorders (Bogoch, E. R., and E. Moran. 1998, Can J Surg 41:264-71). […] LB-12 cells were incubated for different times in the absence or presence of IL-1β. […] Since the rapid, but transient induction of ESE-1 resembles that of immediate early genes, we tested the effect of the protein synthesis inhibitor cycloheximide which superinduces expression of certain genes due to mRNA stabilization. Cycloheximide alone had no effect, but superinduced IL-1β-mediated ESE-1 mRNA expression (FIG. 11d).

ESE-1 [2] = experiment: ESE-1 mRNA RT-PCR in RA synovial fibroblasts; type: cell-based, human; details: for ESE-1 mRNA expression, agent alone: 4th passage RA synovial fibroblasts
Method: Tissues from patients with rheumatoid arthritis (RA) were obtained as discarded materials from total joint replacement surgery or synovectomy. RA synovial tissue samples were cultured for the generation of adherent synovial fibroblasts. Dispersed synovial tissues were prepared by a previously published method (Goldring, S. R., et al. 1983. The synovial-like membrane at the bone-cement interface in loose total hip replacements and its proposed role in bone lysis. J Bone Joint Surg 65:575-84). Cells were subjected to 2-4 passages and stimulated with IL-1β (R&D Systems) at 100 pg/ml or with TNF-α (R&D Systems) at 5 ng/ml.
(§2) cDNAs were generated from 1 μg of total RNA using Ready-To-Go™ You-prime First-Strand Beads (Amersham Pharmacia Biotech Inc). RT-PCR amplifications of 0.1 μg cDNA were carried out using a MJResearch thermal cycler PTC-100 as follows: 5 min at 94° C., 20-37 cycles of 30 sec at 94° C., 30 sec at 56° C., and 30 sec at 72° C., followed by 5 min at 72° C. (Oettgen, P., et al. 2000, J Biol Chem 275:1216-25). The sequences of the human ESE-1 primers and the primers for human GAPDH were as described (Oettgen, P., et al. 1999, J Biol Chem 274:29439-52).
The synovium in RA is comprised of heterogeneous cell populations including monocyte/macrophages, lymphocytes and synovial fibroblasts. To evaluate whether ESE-1 expression in synovial fibroblasts is regulated by proinflammatory cytokines, 4th passage synovial fibroblasts isolated from RA synovium were stimulated for different times with IL-1β in the absence or presence of indomethacin. […] They also indicate that cytokine-induced prostaglandins may modulate steady state ESE-1 mRNA levels. […] We, therefore, focused our attention in further studies on IL-1β.

COL2A1 promoter = COL2A1 promoter luciferase cotransfection in T/C-28a2 cells; type: cell-based, human; details: for inhibition of COL2A1/4.0 activity: T/C-28a2, pGL3 construct, highest concentrations tested
Method: The COL2A1 sequence spanning −577 to +3428 bp (Goldring M B, et al, J Cell Biochem 1994;54:85-99, 39) was cloned into the pGL2-basic (pGL2B) luciferase reporter gene vector (Promega,) and named pGL2-COL2/4.0. Deletion constructs containing −577/+125 bp, −131/+125 bp, −87/+125 bp were prepared by enzyme digestion of pGL2-COL2/4.0 using PstI, ApaI, and PuuII, followed by ligation. For the deletion constructs −45/+125 bp, −83/+7 bp, and −45/+7 bp, PCR products were generated as described (Osaki et al.) and cloned into the pGL2-Basic luciferase vector. These reporter constructs were used as templates to generate point mutations or internal deletions by PCR mutagenesis employing the oligonucleotides listed in FIG. 16 and the QuikChange™ Site-Directed Mutagenesis Kit (Stratagene, La Jolla, Calif.). DNA fragments containing point mutations were then cloned into the pGL2B vector and confirmed by DNA sequencing using a G2 primer on pGL2 DNA. Deletions were also made in the −577/+127 bp COL2A1 promoter construct using the ExSite™ PCR-Based Site-Directed Mutagenesis Kit (Stratagene).
Transient transfection experiments were carried out in C-28/I2 cells using LipofectAMINE PLUS™ Reagent (Life Technologies). Cells were seeded in 6-well tissue culture plates at 3.5×10^5 cells/well in DMEM/F12 containing 10% FCS 24 h prior to transfection. For each well, 1 μg of COL2A1-luciferase construct, 6 μl of PLUS reagent and 92 μl of serum-free DMEM/F12 were mixed and incubated for 15 min at room temperature. LipofectAMINE+ reagent (4 μl) in 100 μl of serum-free medium was then added to each reaction mixture and incubation was continued for an additional 30 min at room temperature. Finally, the transfection mixture was combined with 800 μl of serum-free medium and the lipid-nucleic acid complex was transferred to the washed cell monolayer in each well. After incubation for 4 h at 37° C., the transfection mix was diluted with an equal volume of DMEM/F12 containing 2% Nutridoma-SP, and incubation continued for 18 h in the absence or presence of IL-1β. For cotransfections, the cells were incubated for 24 h to permit expression of recombinant proteins prior to treatment with IL-1β for a further 18 h. Cell lysates were prepared by extraction with 200 μl of Reporter Lysis Buffer (Promega) and the protein content was determined using the Coomassie Plus Protein Assay Reagent (PIERCE). Luciferase activities were determined by chemiluminescence assay using the Autolumat LB953 luminometer (EG&G Berthold, Oak Ridge, Tenn.), normalized to the amount of protein. Each data point was calculated as the mean±standard deviation for three independently transfected cultures from one representative of at least three experiments. […]

ESE-1 [3] = experiment: ESE-1 mRNA RT-PCR in immortalized chondrocytes T/C28a2, C28/I2, C20/A4; type: cell-based, human; details: T/C28a2, C28/I2 and C20/A4 chondrocytes; 24 hours
Method: as §1, §2
To test the hypothesis that ESE-1 is a mediator of cytokine responses in non-epithelial cell types, we analyzed ESE-1 expression in response to a variety of cytokines in several connective tissue cell types. Immortalized human chondrocytes, T/C28a2, C28/I2, and C20/A4 (Goldring, M. B., et al. 1994, J Clin Invest 94:2307-16), were stimulated with IL-1β, TNF-α and IFN-γ for 24 hours. […] The kinetics of ESE-1 induction was explored in a time course experiment with T/ C28a2 chondrocytes.

NOS2 promoter [4] = experiment: LPS (endotoxin) induction of NOS2 promoter luciferase reporter in RAW cells; type: cell-based, murine
Method: (§3) A 1516 and 265 bp fragment corresponding to nucleotides (−1485 to +31) and (−234 to +31) of the murine NOS2 gene promoter were subcloned into the PGL2 luciferase reporter(Promega).
(§4) Co-transfections of 2×10^5 RAW cells or RASMCs were carried out with 0.6 μg reporter gene construct DNA and 0.6 μg expression vector DNA using 6 μl lipofectamine (Gibco-BRL) as described (Oettgen, P., et al. 1996. Characterization of NERF, a novel transcription factor related to the Ets factor ELF-1. Mol Cell Biol 16:5091-106). The cells were harvested 16 hours after transfection and assayed for luciferase activity. Transfections for every construct were performed independently in duplicates and repeated 3 times with two different plasmid preparations with similar results. Cotransfection of a second plasmid for determination of transfection efficiency was omitted because potential artifacts with this technique have been reported and because many commonly used viral promoters contain potential binding sites for ets factors (Farr, A., and A. Roman. 1992. A pitfall of using a second plasmid to determine transfection efficiency. Nucleic Acids Res 20:920).
In the presence of LPS, the ESE-1 DN1 protein blocked induction of the NOS2 promoter by LPS by approximately 70-75%. (See FIG. 21C).

NOS2 promoter [5] = experiment: ESE-1 transactivation of NOS2 promoter luciferase reporter, cotransfection in RAW cells; type: cell-based, murine; details: cotransfected with ESE-1
Method: as §3, §4
The ability of ESE-1 DN 1 to block transactivation of the NOS2 promoter was tested in RAW cells. Cotransfection of ESE-1 with the NOS2 promoter led to an approximate 12-fold increase in transactivation. […]

[6] = target: T1, p65 subunit of NF-kB, full-length, in vitro translated (UniProt Q04206 1-551, limits assumed, 35S-methionine labeled (pull-down assay)); experiment: GST pull-down, 35S-labeled in vitro translated p65
T1 construct: mature; In the pull-down it was translated in rabbit reticulocyte lysate with 35S-methionine; in the cotransfections it was expressed from pCI; also called p65 Rel domain protein
T1 sequence (Q04206 whole entry, the tested form may be a part): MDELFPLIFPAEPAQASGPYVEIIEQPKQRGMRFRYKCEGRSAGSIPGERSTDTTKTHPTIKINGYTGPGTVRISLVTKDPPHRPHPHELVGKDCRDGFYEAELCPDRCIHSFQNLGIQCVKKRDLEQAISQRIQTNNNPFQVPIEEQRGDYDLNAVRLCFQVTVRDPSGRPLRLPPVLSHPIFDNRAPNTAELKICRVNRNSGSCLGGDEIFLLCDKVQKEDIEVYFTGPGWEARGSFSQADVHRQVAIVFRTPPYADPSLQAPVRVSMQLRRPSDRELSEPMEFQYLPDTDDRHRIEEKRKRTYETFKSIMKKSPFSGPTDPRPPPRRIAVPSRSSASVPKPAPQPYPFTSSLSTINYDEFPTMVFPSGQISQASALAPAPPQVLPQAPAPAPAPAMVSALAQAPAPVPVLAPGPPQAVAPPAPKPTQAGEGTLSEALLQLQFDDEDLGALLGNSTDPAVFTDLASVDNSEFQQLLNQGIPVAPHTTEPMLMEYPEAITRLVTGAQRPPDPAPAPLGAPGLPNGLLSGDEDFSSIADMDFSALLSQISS
Method: A series of GST-ESE-1 fusion proteins were generated by PCR with specific primers to contain in frame restriction enzyme sites and sequenced to confirm that there were no mutations introduced by the PCR. GST-ESE-1 fusion proteins were prepared as previously described. 35S-methionine labeled in vitro translated full-length p50 and p65 were incubated with equal amounts of GST-ESE-1 fusion proteins or GST on agarose beads in 200 ul of NETN(0.5% Nonidet P-40, 1 mM EDTA, 20 mM Tris-HCl, pH 8.0, 100 mM NaCl) for 3 h at 4 degrees C. with gentle shaking. Bound p50 or p65 proteins were then eluted after three washings with NETN buffer and analyzed on a 12% SDS-polyacrylamide gel.

Molecule: C[C@]12CCC(=O)C=C1CC[C@@H]1[C@@H]2[C@@H](O)C[C@@]2(C)[C@H]1CC[C@]2(O)C(=O)CO [Hydrocortisone]
IL-1β-mediated ESE-1 mRNA expression in presence of agent (ESE-1 [1]): strongly enhanced
ESE-1 mRNA expression, agent alone (ESE-1 [1]; 1, 2, 6, 24 hours): did not induce

Molecule: COc1ccc2c(c1)c(CC(=O)O)c(C)n2C(=O)c1ccc(Cl)cc1 [indomethacin]
ESE-1 mRNA expression, agent alone (ESE-1 [2]): did not express detectable ESE-1 mRNA
IL-1β-induced ESE-1 mRNA levels in presence of agent (ESE-1 [2]; RA synovial fibroblasts, 6 hours, 24 hours, 5 days): stabilized and did not decline even after 5 days

Molecule: ESE-3: ESE family Ets factor overexpressed by cotransfection
inhibition of pGL2-COL2/4.0 (COL2A1 promoter; highest concentration tested): ~60%

Molecule: IFN-γ: cytokine tested on chondrocytes
ESE-1 expression (ESE-1 [3]): failed to induce ESE-1 expression

Molecule: TNF-α
ESE-1 mRNA expression, agent alone (ESE-1 [2]): minimal ESE-1 induction
ESE-1 expression (ESE-1 [3]): stimulated ESE-1 expression in T/ C28a2 cells to similar levels as IL-1β, but only weakly in C28/I2 and C20/A4 cells

Molecule: pCI-ELF1: expression vector for the ETS factor ELF-1
inhibition of COL2A1/4.0 activity (COL2A1 promoter): 65%

Molecule: pCI-NERF2: expression vector for the ETS factor NERF-2
inhibition of COL2A1/4.0 activity (COL2A1 promoter): 40%

B1: ESE-1 DN1: dominant negative ESE-1 protein lacking amino acids 26 through 192, expressed from pCI plasmid (SEQ ID NO: 39) (protein, listed as Homo sapiens)
chain: MAATCEISNIFSNYFSAMYSSEDSTAGTGASRSSHSSDSGGSDVDLDPTDGKLFPSDGFRDCKKGDPKHGKRKRGRPRKLSKEYWDCLEGKKSKHAPRGTHLWEFIRDILIHPELNEGLMKWENRHEGVFKFLRSEAVAQLWGQKKKNSNMTYEKLSRAMRYYYKREILERVDGRRLVYKFGKNSSGWKEEEVLQSRN
induction of the NOS2 promoter by LPS blocked by (NOS2 promoter [4]; in the presence of LPS): 70-75%
basal NOS2 promoter activity (NOS2 promoter [4]; prior to LPS induction): slight reduction
ESE-1 transactivation of the NOS2 promoter blocked by (NOS2 promoter [5]): 60-70%

binding result [6]: no binding
B2: GST-ESE-1 fusion protein, full length ESE-1 (other, UniProt P78545 1-371, looked up)
chain: MAATCEISNIFSNYFSAMYSSEDSTLASVPPAATFGADDLVLTLSNPQMSLEGTEKASWLGEQPQFWSKTQVLDWISYQVEKNKYDASAIDFSRCDMDGATLCNCALEELRLVFGPLGDQLHAQLRDLTSSSSDELSWIIELLEKDGMAFQEALDPGPFDQGSPFAQELLDDGQQASPYHPGSCGAGAPSPGSSDVSTAGTGASRSSHSSDSGGSDVDLDPTDGKLFPSDGFRDCKKGDPKHGKRKRGRPRKLSKEYWDCLEGKKSKHAPRGTHLWEFIRDILIHPELNEGLMKWENRHEGVFKFLRSEAVAQLWGQKKKNSNMTYEKLSRAMRYYYKREILERVDGRRLVYKFGKNSSGWKEEEVLQSRN
notes: mature; GST fusion on agarose beads in the pull-down; also called full length ESE-1 protein; not shown: glutathione S-transferase (GST) fusion partner

Reference: patent publication US6869929B2, “Use of transcription factors for treating inflammation and other diseases” (Beth Israel Deaconess Medical Center, priority 2000, dated 2005)
